Columns and labels:
[1] = tested on: marrow cells (mononuclear cell fraction); assay: Proliferation-stimulating effect on marrow cell of mouse (3H-TdR uptake); assay type: cell-based, mouse (BALB/c); conditions: percentage of control, 72 h; for activity at 1 µg/mL: 10^0 μg/ml; for activity at 0.1 µg/mL: 10^-1 μg/ml; for activity at 0.01 µg/mL: 10^-2 μg/ml; for activity at 0.001 µg/mL: 10^-3 μg/ml
Experimental: Pharmacological Test 1: Proliferation-Stimulating Effect on Marrow Cell of Mouse
Marrow cells were prepared from the thigh bone of a 7 week old female BALB/c mouse purchased from Japan SLC Co., Ltd., and a mononuclear cell fraction (MNF) obtained by fractionation using a lympholyte-M (Cedar Lane, Ontario, Canada) was used in the following experiment.
The concentration of the MNF was adjusted to 1.5×10^6 cells/ml by using 10% FCS RPMI 1640 (Nissui Pharmaceutical Co., Ltd., Tokyo, Japan) as a culture medium. 10 μl/well of a sample with a predetermined concentration and 100 μl/well of the above-prepared MNF were placed on a round-bottomed 96 well plate, and incubated under the conditions of 37° C. and 5% CO2 for 72 hours. Thereafter, 0.5 μCi/well of ^3 H-thymidine (^3 H-TDR) was added. After 8 hour incubation, the cells were harvested, and the amount of the 3H-TdR taken in the nuclei was measured by a liquid scintillation counter.

blood platelets [2] = assay: Blood-platelet-increasing effect upon normal mouse; assay type: in vivo, mouse (BDF1); conditions: normal mice; 6 days after 0.1 mg/kg i.v.; mean ± SD; vehicle per series 58.2, 63.0, 71.1
Experimental: Pharmacological Test 6: Blood-Platelet-Increasing Effect upon Mouse
An experiment was carried out by using 6 week old female BDF1 mice purchased from Japan SLC Co., Ltd., with 5 mice made one group.
Each sample was administered to the caudal vein of the mice at a dose of 0.1 mg/kg. After 6 days, blood was collected from the fundus vein of the mice, and the number of blood platelets was measured by a sequential multi-channel hemocytometer E-2500/cs (Toa Iyo Denshi Kabushiki Kaisha). The number of blood platelets of the vehicle-administered group, and that of the sample-administered group are shown in Table 6.

blood platelets [3] = assay: Thrombocytopenia-inhibiting effect in X-ray-irradiated mice; assay type: in vivo, mouse (BDF1); conditions: 10 days after 5 Gy X-ray; 0.1 mg/kg i.v. within 2 h; mean ± SD; vehicle per series 10.3, 6.8, 6.7; non-treatment 68.2, 96.9, 73.0
Experimental: Pharmacological Test 5: Thromboclytopenia-Inhibiting Effect
The thrombocytopenia-inhibiting effect of each sample upon an X-ray-irradiated mouser which is one of models with a decreased number of blood platelets was examined.
An experiment was carried out by using 6 week old female BDF1 mice purchased from Japan SLC Co., Ltd., with 6 mice made one group.
5 Gy of X ray was irradiated to the entire body of the mice by a Hitachi X-ray irradiator CMBR-1520R). Within 2 hours after the irradiation, each sample was administered to the caudal vein of the mice at an amount of 0.1 mg/kg.
After 10 days, blood was collected from the fundus vein of the mice, and the number of blood platelets was measured by a sequential multi-channel hemocytometer E-2500/cs (Toa Iyo Denshi Kabushiki Kaisha). The number of blood platelets of the non-treated group, that of the medium-administered group, and that of the sample-administered group are shown in Table 5.

[4] = Life-span-increasing effect on irradiation of a lethal dose of radiation; assay type: in vivo, mouse (BDF1); conditions: 10 mice/group, 9 Gy X-ray, 0.1 mg/kg i.v. days 0, 4, 8
Experimental: Pharmacological Test 4: Life-Span-Increasing Effect on Irradiation of a Lethal Dose of Radiation
An experiment was carried out by using 6 week old female BDF1 mice purchased from Japan SLC Co., Ltd., with 10 mice made one group.
The entire bodies of the entire body of the mice were irradiated with 9 Gy of X-rays by using a Hitachi X-ray irradiator (MBR-1520R), and the day on which the X-ray was irradiated was referred to as "day 0".

[5] = day 10, controls per series 10, 10, 10, 10, 10, 8
[6] = day 15, controls per series 8, 9, 5, 5, 7, 1
[7] = day 20, controls per series 4, 5, 1, 2, 3, 0
[8] = day 25, controls per series 3, 3, 0, 0, 2, 0
[9] = day 30, controls per series 1, 1, 0, 0, 0, 0

Row | SMILES | activity at 1 µg/mL [1] [%] | activity at 0.1 µg/mL [1] [%] | activity at 0.01 µg/mL [1] [%] | activity at 0.001 µg/mL [1] [%] | Number of Blood Platelets (blood platelets [2]) | Number of Blood Platelets (blood platelets [3]) | Number of Surviving Mice [4, 5] [mice] | Number of Surviving Mice [4, 6] [mice] | Number of Surviving Mice [4, 7] [mice] | Number of Surviving Mice [4, 8] [mice] | Number of Surviving Mice [4, 9] [mice] | Number of Surviving Mice ([4]; day 35, all controls 0) [mice] | Number of Surviving Mice ([4]; day 40, all controls 0) [mice]
1 | CCCCCCCCCCCCC/C=C/[C@@H](O)[C@H](CO[C@H]1O[C@H](CO)[C@H](O)[C@H](O)[C@H]1O)NC(=O)CCCCCCCCCCCCCCCCC [Compound 15, (2S,3R,4E)-1-(α-D-galactopyranosyloxy)-2-octadecanoylamino-4-octadecen-3-ol] | 979 | 292 | 101 | 69 | 84.7 ± 6.0 × 10^4 /μl | 17.8 ± 2.4 × 10^4 /μl | 10 | 9 | 6 | 6 | 6 | 6 | 6
2 | CCCCCCCCCCCCCCCCCCCCCCCC(=O)N[C@@H](CO[C@H]1O[C@H](CO)[C@H](O)[C@H](O)[C@H]1O)[C@H](O)[C@H](O)CCCCCCC [Compound 19, (2S,3S,4R)-1-(α-D-galactopyranosyloxy)-2-tetracosanoylamino-3,4-undecanediol] | – | 499 | 207 | 173 | 106.4 ± 12.7 × 10^4 /μl | 23.4 ± 4.2 × 10^4 /μl | 10 | 10 | 10 | 10 | 10 | 10 | 10
3 | CCCCCCCCCCCCCCCCCCCCCC[C@@H](O)C(=O)N[C@@H](CO[C@H]1O[C@H](CO)[C@H](O)[C@H](O)[C@H]1O)[C@H](O)[C@H](O)CCCCCCC [Compound 24, (2S,3S,4R)-1-(α-D-galactopyranosyloxy)-2-[(R)-2-hydroxytetracosanoylamino]-3,4-undecanediol] | 576 | 197 | 79 | 77 | 102.6 ± 9.9 × 10^4 /μl | 21.6 ± 7.2 × 10^4 /μl | 10 | 9 | 9 | 9 | 9 | 9 | 9
4 | CCCCCCCCCCCCCCCCCCCCCCCC[C@@H](O)C(=O)N[C@@H](CO[C@H]1O[C@H](CO)[C@H](O)[C@H](O)[C@H]1O)[C@H](O)[C@H](O)CCCCCCCCCCCCCCC [Compound 26, (2S,3S,4R)-1-(α-D-galactopyranosyloxy)-2-[(R)-2-hydroxyhexacosanoylamino]-3,4-nonadecanediol] | – | 271 | 183 | 156 | 113.7 ± 7.1 × 10^4 /μl | 19.8 ± 4.3 × 10^4 /μl | 10 | 9 | 9 | 8 | 8 | 8 | 8
5 | CCCCCCCC/C=C\CCCCCCCC(=O)N[C@@H](CO[C@H]1O[C@H](CO)[C@H](O)[C@H](O)[C@H]1O)[C@H](O)CCCCCCCCCCCCCCC [Compound 29, (2S,3R)-1-(α-D-galactopyranosyloxy)-2-oleoylamino-3-octadecanol] | 865 | 382 | 187 | 97 | 86.3 ± 3.1 × 10^4 /μl | 18.1 ± 5.0 × 10^4 /μl | 10 | 9 | 8 | 8 | 8 | 8 | 8
6 | CCCCCCCCCCCCCCCCCCCCCC[C@H](O)C(=O)N[C@@H](CO[C@H]1O[C@H](CO)[C@H](O)[C@H](O)[C@H]1O)[C@H](O)[C@H](O)CCCCCCCCCCCC(C)C [Compound 30, (2S,3S,4R)-1-(α-D-galactopyranosyloxy)-2-[(S)-2-hydroxytetracosanoylamino]-16-methyl-3,4-heptadecanediol] | 712 | 293 | 105 | 92 | 106.2 ± 9.0 × 10^4 /μl | 22.5 ± 3.5 × 10^4 /μl | 10 | 10 | 10 | 10 | 10 | 10 | 10
7 | CCCCCCCCCCCCCCCCCCCCCCCC(=O)N[C@@H](CO[C@H]1O[C@H](CO)[C@H](O)[C@H](O)[C@H]1O)[C@H](O)[C@H](O)CCCCCCCCCCCC(C)C [Compound 31, (2S,3S,4R)-1-(α-D-galactopyranosyloxy)-16-methyl-2-tetracosanoylamino-3,4-heptadecanediol] | 624 | 326 | 104 | 101 | 108.0 ± 7.0 × 10^4 /μl | 27.7 ± 5.4 × 10^4 /μl | 10 | 10 | 9 | 9 | 9 | 9 | 9
8 | CCCCCCCCCCCCC/C=C/[C@@H](O)[C@H](CO[C@H]1O[C@H](CO)[C@H](O)[C@H](O)[C@H]1O)NC(=O)CCCCCCCCCCCCC [Compound 32, (2S,3R,4E)-1-(α-D-galactopyranosyloxy)-2-tetradecanoylamino-4-octadecen-3-ol] | 871 | 405 | 151 | 115 | 88.3 ± 4.2 × 10^4 /μl | 16.4 ± 3.2 × 10^4 /μl | 10 | 9 | 4 | 3 | 3 | 3 | 3
